Values after ≈ are worked out from the molar mass of the structure shown. Like-named read-outs stand apart in the source and are kept apart here.
What was measured:
[1] = tested on: E. coli CFT073; experiment: Determination of minimum inhibitory concentration (MIC); type: cell-based; settings: Escherichia coli
Experimental: (§1) A range of concentration of antibiotics, ciprofloxacin (0.0003-0.25 μg mL^−1) and carbenicillin (0.5-512 μg mL^−1), are chosen due to their known potency against all four bacterial strains. Dilutions are prepared in flat bottom, 96 well microtitre plates (Falcon™, Corning™, Fisher Scientific, ON, Canada). Each well of a microtitre plate is then inoculated with the desired bacterial strain (grown in MHB-II and diluted to […]) and the plate is incubated at 37° C. for 18 h under static conditions. Bacterial growth is assessed by (i) monitoring the optical density of the cell suspension in each well at 600 nm (OD600 nm), and (ii) the resazurin microtitre plate assay. In the resazurin microtitre plate assay, each well of a microtitre plate is supplemented with 20 μM resazurin, incubated in the dark for 20 min at room temperature, followed by fluorescence measurements at ex/em 570/590 nm using a TECAN Infinite M200 Pro microplate reader (Tecan Group Ltd., Switzerland). The lowest concentration of a compound able to prevent increase in OD600 nm and resazurin fluorescence intensity is recorded as the MIC for that compound.

[2] = tested on: P. aeruginosa PA14; experiment: as above; type: cell-based; settings: Pseudomonas aeruginosa
Experimental: as §1

[3] = tested on: P. mirabilis HI4320; experiment: as above; type: cell-based; settings: Proteus mirabilis
Experimental: as §1

[4] = tested on: P. aeruginosa PAO1; experiment: as above; type: cell-based; settings: Pseudomonas aeruginosa
Experimental: as §1

[5] = tested on: E. coli CFT073, P. mirabilis HI4320, P. aeruginosa PAO1 and PA14; experiment: Checkerboard microdilution assay, summary over the four strains; type: cell-based; settings: labelled constituent + gallic acid; range over the four strains
Experimental: (§2) The checkerboard microdilution assay is used for evaluation of in vitro antimicrobial synergy between two compounds (i.e., antibiotic/PRMSE, antibiotic/pure phenolic compound, and pure phenolic compounds with each other). Two-fold serial dilutions are prepared in MHB-II for each of the two compounds under study. The serial dilutions are then loaded into 96 well plates to achieve combinations having different concentrations of each of the two compounds. Each well is subsequently inoculated with 10^6 CFU mL^−1 of the desired bacterial strain and incubated at 37° C. for 18 h under static conditions. The Fractional Inhibitory Concentration Index (FICI) for each combination is calculated by using the following formula: FICcomponent 1=MICcomponent 1, in combination/MICcomponent 1,alone FICI=FICcomponent 1+FICcomponent 2
(§3) The FICIs are interpreted as follows: FICI of […] (synergy); 0.5<FICI ≤1 (no interaction/indifference); FICI of >4 (antagonism).

[6] = tested on: P. mirabilis HI4320; experiment: Checkerboard microdilution assay (growth inhibition synergy); type: cell-based, Proteus mirabilis
Experimental: as §2, §3

[7] = tested on: P. aeruginosa PA14; experiment: as above; type: cell-based, Pseudomonas aeruginosa
Experimental: as §2, §3

[8] = tested on: P. aeruginosa PAO1; experiment: as above; type: cell-based, Pseudomonas aeruginosa
Experimental: as §2, §3

[9] = tested on: E. coli CFT073; experiment: as above; type: cell-based, Escherichia coli
Experimental: as §2, §3

[10] = tested on: G. mellonella larvae; experiment: G. mellonella larvae survival after injection of extract or antibiotic alone; type: in vivo, Galleria mellonella; settings: injected alone; PRMSE 12.5 mg/mL, ciprofloxacin 0.03 μg/mL; within 72 h
Experimental: Each data set is representative of experiments with five larvae per condition in triplicate.
G. mellonella infection assay is performed as described previously with some modification (Jander et al., 2000, J Bacteriol., 182: 3843-3845). Briefly, PA14 culture grown overnight in TSB broth is diluted 1:100 in the same growth medium and further grown to OD600 nm of 1.27 at 37° C. under 100 rpm shaking. Freshly grown culture is centrifuged, and pellets are washed and resuspended in 10 mM MgSO4 to an OD600 of 0.1. […] Ampicillin is used to prevent infection by bacterial contaminants on the surface of the larvae at a final concentration of approximately 5 ng per larva during survival phase. G. mellonella larvae are injected with 5 μL aliquot of each treatment solution using prewashed Hamilton syringe. Five larvae are injected per each treatment and the assay is performed in triplicate. […] All injected larvae are incubated in Petri plates at 28° C. under the dark condition, and the number of dead larvae is scored daily after infection. […] A mock inoculation using prewashed Hamilton syringe is also performed in each experiment to monitor the killing due to physical injury or infection by pathogenic contaminants. […]

[11] = tested on: P. aeruginosa PA14 infection; experiment: Drosophila melanogaster (fruit fly) feeding infection assay; type: in vivo; settings: monotherapy at sub-MIC (PRMSE 6.25 mg mL^−1, ciprofloxacin 0.015 μg mL^−1)
Experimental: Mortality was scored daily for 14 days. […] Results represent measurements from experiments performed with duplicates, twice (*p<0.01, Log-rank Mantel-cox test).
In this infection assay, PRMSE was analyzed for its anti-infective activity. As well, antibiotic ciprofloxacin is analyzed in combination with PRMSE for its synergistic anti-infective interactions. Fruit flies (D. melanogaster) are infected orally in fly feeding assay as before (Lutter et al., 2008, Infect Immun., 76: 1877-1888), with some modifications. Briefly, flies are anesthetized under a gentle stream of carbon dioxide. Male flies (3- to 5-days-old) are starved of food and water for 5-6 h and separated into vials (10 per vial) containing 5 ml of 5% sucrose agar (sterile) without and with phenolic extract without and with antibiotic at sub-MICs and 2.3-cm filter paper disks (sterile) containing freshly grown bacterial culture suspension. To achieve this freshly grown culture, an overnight P. aeruginosa PA14 culture is inoculated in 6 mL TSB culture and incubated at 37° C. and 100 rpm until OD600=3.0. This culture is centrifuged at 12,000×g for 1 min and the resulting pellet resuspended in 150 μL of sterile 5% sucrose, without and with sub-MICs of phenolic extract or antibiotic. […] Post-infection mortality of flies is monitored daily for 14 days, with each treatment tested twice in duplicate.

[12] = tested on: P. aeruginosa PA14 infection; experiment: Galleria mellonella larvae (wax moth) infection assay; type: in vivo; settings: monotherapy at sub-MIC (PRMSE 12.5 mg/mL, ciprofloxacin 0.03 μg/mL)
Experimental: Each data set represents one experiment with five larvae per condition in triplicate, the experiment repeated twice (*P<0.05, Mantel-cox test, n=6).
Briefly, PA14 culture grown overnight in TSB broth is diluted 1:100 in the same growth medium and further grown to OD600 nm of 1.27 at 37° C. under 100 rpm shaking. Freshly grown culture is centrifuged, and pellets are washed and resuspended in 10 mM MgSO4 to an OD600 of 0.1. To prepare the lethal dose of P. aeruginosa PA14 culture serial 10-fold dilutions are made in 10 mM MgSO4 supplemented with 1 mg/mL of ampicillin (adjusted to about 1-10^3 bacterial cells in 5 μL of suspension) containing or not containing PRMSE, without and with ciprofloxacin at sub-MICs. Ampicillin is used to prevent infection by bacterial contaminants on the surface of the larvae at a final concentration of approximately 5 ng per larva during survival phase. G. mellonella larvae are injected with 5 μL aliquot of each treatment solution using prewashed Hamilton syringe. Five larvae are injected per each treatment and the assay is performed in triplicate. PRMSE and ciprofloxacin at sub-MICs are assessed individually to monitor adverse effect on larvae survival. […] All injected larvae are incubated in Petri plates at 28° C. under the dark condition, and the number of dead larvae is scored daily after infection. […]

[13] = tested on: D. melanogaster flies; experiment: D. melanogaster survival when fed extract or antibiotic individually; type: in vivo, Drosophila melanogaster; settings: PRMSE 6.25 mg/mL, ciprofloxacin 0.015 μg/mL, within 264 h
Experimental: As well, antibiotic ciprofloxacin is analyzed in combination with PRMSE for its synergistic anti-infective interactions. Fruit flies (D. melanogaster) are infected orally in fly feeding assay as before (Lutter et al., 2008, Infect Immun., 76: 1877-1888), with some modifications. Briefly, flies are anesthetized under a gentle stream of carbon dioxide. Male flies (3- to 5-days-old) are starved of food and water for 5-6 h and separated into vials (10 per vial) containing 5 ml of 5% sucrose agar (sterile) without and with phenolic extract without and with antibiotic at sub-MICs and 2.3-cm filter paper disks (sterile) containing freshly grown bacterial culture suspension. To achieve this freshly grown culture, an overnight P. aeruginosa PA14 culture is inoculated in 6 mL TSB culture and incubated at 37° C. and 100 rpm until OD600=3.0. This culture is centrifuged at 12,000×g for 1 min and the resulting pellet resuspended in 150 μL of sterile 5% sucrose, without and with sub-MICs of phenolic extract or antibiotic. […] Post-infection mortality of flies is monitored daily for 14 days, with each treatment tested twice in duplicate.

[14] = tested on: P. aeruginosa PA14; experiment: Survival of PA14 on sucrose filters during fly feeding assay; type: cell-based, Pseudomonas aeruginosa; settings: PRMSE 6.25 mg mL-1, ciprofloxacin 0.015 μg mL-1, mono- and combination; six days
Experimental: Total viable bacterial counts per filter were determined every second day for filters containing bacterial cells on sucrose agar. PA14 cells on filter were untreated or treated with PRMSE (6.25 mg mL-1) or ciprofloxacin (0.015 μg mL-1) alone and in combination. Average data represent data from experiment performed in triplicate and error bars represent S.D.
To address this possibility, the survival of PA14 on the paper discs without and with sub-MICs of PRMSE or antibiotic under the same conditions as the fly feeding assay is analyzed. Enumeration of viable bacteria on filters during the infection period is performed using separate test vials with different treatments inoculated with P. aeruginosa PA14 and inoculated control sucrose vials that are sampled on alternative days, up to 6 days during infection period. Briefly, filters from the test vials are removed in a sterile environment, placed in 50 mL polypropylene tube containing 5 mL of LB broth and vortexed for 30 s. This LB medium containing the sampled bacterial cells is serially diluted in phosphate buffer saline solution (pH 7.4), and 30 μL is plated onto Pseudomonas isolation agar (BD-Difco). Colonies are enumerated after the incubation at 37° C. for 24 h.

[15] = tested on: P. aeruginosa PA14 lawn; experiment: In vitro analysis of hemolymph recovered from treated G. mellonella larvae; design: species or system Galleria mellonella; settings: hemolymph recovered 3 h post-injection, spotted on PA14 lawn, 24 h at 37° C.
Experimental: Larvae were injected with PRMSE (mg/mL) or Cip (μg/mL) alone and in combination, and hemolymph recovered 3 h after treatment were spotted on Pseudomonas isolation agar plates previously inoculated with PA14 cells to produce a lawn of confluent growth. The plate was observed after 24 h of incubation at 37° C. The experiment was performed with three larvae per each condition in triplicate. S-control: saline control.
To rule out any growth-inhibitory effect of PRMSE on PA14 cells due to induction of the immune response, production of antimicrobial peptides or transformation of the extract into a toxic compound(s) in the larval hemolymph, an additional set of larvae are injected with 5 μL of PRMSE without and with ciprofloxacin (sub-MICs) or saline solution as a control. The larval hemolymph is recovered at 3 h after the treatment and 5 μL aliquot of each larval hemolymph sample is spotted on the Pseudomonas isolation agar (BD-Difco) plates previously inoculated with PA14 cells to produce a lawn of confluent growth. The appearance of growth inhibition halos is verified after 24 h of incubation at 37° C.

[16] = ciprofloxacin in combination with the labelled phenolic constituent
[17] = labelled constituent + catechaldehyde, * = synergistic
[18] = labelled constituent + catechol, * = synergistic
[19] = labelled constituent + gallic acid, * = synergistic
[20] = labelled constituent combined with catechaldehyde
[21] = labelled constituent combined with catechol
[22] = labelled constituent combined with gallic acid
[23] = labelled phenolic constituent + ciprofloxacin, * = synergistic interaction
[24] = labelled phenolic constituent in combination with ciprofloxacin
[25] = ciprofloxacin/PRMSE combination, FIC of the labelled component

COc1cc(C=O)cc(OC)c1O [syringaldehyde]
MIC ([1]; CFT073, 18 h): 5000 µg/mL (≈ 27.4 mM) | MIC ([2]; PA14, 18 h): 5000 µg/mL (≈ 27.4 mM) | MIC ([3]; HI4320, 18 h): 5000 µg/mL (≈ 27.4 mM) | MIC ([4]; PAO1, 18 h): 5000 µg/mL (≈ 27.4 mM) | FICIs of pairs with gallic acid [5]: 0.63-1.0 | FIC of ciprofloxacin [6, 16]: 0.5 | FICI, catechaldehyde [6, 17]: 0.75 | FICI, catechol [6, 18]: 0.75 | FICI, gallic acid [6, 19]: 1 | FIC, catechaldehyde [6, 20]: 0.25 | FIC, catechol [6, 21]: 0.25 | FIC, gallic acid [6, 22]: 0.5 | FICI [6, 23]: 1 | FIC of compound [6, 24]: 0.5 | FIC of ciprofloxacin [7, 16]: 0.5 | FICI, catechaldehyde [7, 17]: 1 | FICI, catechol [7, 18]: 1 | FICI, gallic acid [7, 19]: 0.63 | FIC, catechaldehyde [7, 20]: 0.5 | FIC, catechol [7, 21]: 0.5 | FIC, gallic acid [7, 22]: 0.13 | FICI [7, 23]: 0.75 | FIC of compound [7, 24]: 0.25 | FIC of ciprofloxacin [8, 16]: 1 | FICI, catechaldehyde [8, 17]: 0.5* | FICI, catechol [8, 18]: 0.5* | FICI, gallic acid [8, 19]: 1 | FIC, catechaldehyde [8, 20]: 0.25 | FIC, catechol [8, 21]: 0.25 | FIC, gallic acid [8, 22]: 0.5 | FICI [8, 23]: 2 | FIC of compound [8, 24]: 1 | FIC of ciprofloxacin [9, 16]: 0.5 | FICI, catechaldehyde [9, 17]: 0.31* | FICI, catechol [9, 18]: 0.31* | FICI, gallic acid [9, 19]: 0.75 | FIC, catechaldehyde [9, 20]: 0.25 | FIC, catechol [9, 21]: 0.25 | FIC, gallic acid [9, 22]: 0.5 | FICI [9, 23]: 0.75 | FIC of compound [9, 24]: 0.25

O=C(O)c1cn(C2CC2)c2cc(N3CCNCC3)c(F)cc2c1=O [ciprofloxacin, reference compound]
killing effect on G. mellonella larvae [10]: no killing effect | MIC ([1]; CFT073, antibiotic alone, MHB-II, 37° C., 18 h, read-out: MIC): 0.008 µg/mL (≈ 2.41e-05 mM) | MIC ([2]; PA14, antibiotic alone, MHB-II, 37° C., 18 h, read-out: MIC): 0.06 µg/mL (≈ 0.000181 mM) | MIC ([3]; HI4320, antibiotic alone, MHB-II, 37° C., 18 h, read-out: MIC): 0.016 µg/mL (≈ 4.83e-05 mM) | MIC ([4]; PAO1, antibiotic alone, MHB-II, 37° C., 18 h, read-out: MIC): 1 µg/mL (≈ 0.00302 mM) | protection of D. melanogaster against PA14 infection [11]: fails to protect | FIC (Fractional Inhibitory Concentration) [6, 25]: 0.02 | protection of G. mellonella larvae against PA14 infection [12]: fails to protect | killing effect on D. melanogaster flies [13]: no killing effect | culturability of PA14 cells on filter paper discs [14]: no significant difference | FIC (Fractional Inhibitory Concentration) [7, 25]: 0.03 | FIC (Fractional Inhibitory Concentration) [8, 25]: 0.03 | FIC (Fractional Inhibitory Concentration) [9, 25]: 0.25 | effect of recovered larval hemolymph on PA14 growth in vitro [15]: no effect
